Measurements as given in patent publication US8962674B2 (Tokyo Institute of Technology, priority 2006, dated 2015).

**Q.** Which melting point does the source give for `COc1ccc(/C=C/C(=O)CC(=O)/C=C/c2ccc(O)c(F)c2)cc1O` [CU035, (1E,6E)-1-(3-fluoro-4-hydroxyphenyl)-7-(3-hydroxy-4-methoxyphenyl)hepta-1,6-diene-3,5-dione] here?
**A.** Its melting point is 173 to 176 °C.

**Q.** Which melting point does the source give for `COc1ccc(/C=C/C(=O)CC(=O)/C=C/c2ccc(O)cc2)c(O)c1` [CU251, (1E,6E)-1-(2-hydroxy-4-methoxyphenyl)-7-(4-hydroxyphenyl)hepta-1,6-diene-3,5-dione] here?
**A.** Its melting point is 137 to 139 °C.

**Q.** With `COc1cc(/C=C/C(=O)CC(=O)/C=C/c2c[nH]c3cccc([N+](=O)[O-])c23)ccc1O` [CU462, (1E,6E)-1-(4-hydroxy-3-methoxyphenyl)-7-(4-nitro-1H-indol-3-yl)hepta-1,6-diene-3,5-dione] as the molecule, how does the melting point read?
**A.** The melting point was 232 to 237 °C.

**Q.** With `Cn1cccc1/C=C/C(=O)CC(=O)/C=C/c1ccc(O)cc1` [CU120, (1E,6E)-1-(4-hydroxyphenyl)-7-(1-methyl-1H-pyrrol-2-yl)hepta-1,6-diene-3,5-dione] as the molecule, how does the melting point read?
**A.** Its melting point is 169 to 173 °C.

**Q.** With `COc1cc(/C=C/C(=O)CC(=O)/C=C/c2ccc(O)cc2O)ccc1O` [CU257, (1E,6E)-1-(2,4-dihydroxyphenyl)-7-(4-hydroxy-3-methoxyphenyl)hepta-1,6-diene-3,5-dione] as the molecule, how does the melting point read?
**A.** Its melting point is 99 to 108 °C.

**Q.** For `O=C(/C=C/c1ccc(O)cc1)CC(=O)/C=C/c1ccc(O)cc1Cl` [CU127, (1E,6E)-1-(2-chloro-4-hydroxyphenyl)-7-(4-hydroxyphenyl)hepta-1,6-diene-3,5-dione], which melting point is on record?
**A.** Its melting point is 131 to 138 °C.

**Q.** Which melting point does the source give for `CN(C)c1ccc(Br)cc1/C=C/C(=O)CC(=O)/C=C/c1ccc(O)cc1` [CU534, (1E,6E)-1-(5-bromo-2-dimethylaminophenyl)-7-(4-hydroxyphenyl)hepta-1,6-diene-3,5-dione] here?
**A.** The melting point was 68 to 72 °C.

**Q.** For `COc1ccc(/C=C/C(=O)CC(=O)/C=C/c2cc(O)ccc2O)cc1O` [CU091, (1E,6E)-1-(2,5-dihydroxyphenyl)-7-(3-hydroxy-4-methoxyphenyl)hepta-1,6-diene-3,5-dione], which melting point is on record?
**A.** Its melting point is 115 to 121 °C.

**Q.** With `COc1ccc(/C=C/C(=O)CC(=O)/C=C/c2ccc(OC)c(O)c2)c(O)c1` [CU282, (1E,6E)-1-(2-hydroxy-4-methoxyphenyl)-7-(3-hydroxy-4-methoxyphenyl)hepta-1,6-diene-3,5-dione] as the molecule, how does the melting point read?
**A.** Its melting point is 147 to 152 °C.

**Q.** For `CCN(CC)c1ccc(/C=C/C(=O)CC(=O)/C=C/c2ccc(O)c(OC)c2)c(O)c1` [CU277, (1E,6E)-1-(4-diethylamino-2-hydroxyphenyl)-7-(4-hydroxy-3-methoxyphenyl)hepta-1,6-diene-3,5-dione], which melting point is on record?
**A.** Its melting point is 89 to 92 °C.

**Q.** With `COc1ccc(/C=C/C(=O)CC(=O)/C=C/c2ccc(O)c(OC)c2)c(O)c1` [CU256, (1E,6E)-1-(2-hydroxy-4-methoxyphenyl)-7-(4-hydroxy-3-methoxyphenyl)hepta-1,6-diene-3,5-dione] as the molecule, how does the melting point read?
**A.** The melting point was 108 to 113 °C.

**Q.** With `COc1ccc(/C=C/C(=O)CC(=O)/C=C/c2ccc(N(C)C)cc2OC)cc1O` [CU155, (1E,6E)-1-(4-dimethylamino-2-methoxyphenyl)-7-(3-hydroxy-4-methoxyphenyl)hepta-1,6-diene-3,5-dione] as the molecule, how does the melting point read?
**A.** Its melting point is 108 to 113 °C.

**Q.** With `O=C(/C=C/c1ccc(O)cc1)CC(=O)/C=C/c1coc2ccccc2c1=O` [CU407, (1E,6E)-1-(chromon-3-yl)-7-(4-hydroxyphenyl)hepta-1,6-diene-3,5-dione] as the molecule, how does the melting point read?
**A.** Its melting point is 227 to 231 °C.

**Q.** Which melting point does the source give for `Cc1ccc(Oc2ccc(/C=C/C(=O)CC(=O)/C=C/c3ccc(Oc4ccc(C)cc4)nc3)cn2)cc1` [CU378, (1E,6E)-1,7-bis[6-(4-methylphenoxy)pyridin-3-yl]hepta-1,6-diene-3,5-dione] here?
**A.** Its melting point is 185 to 190 °C.

**Q.** For `O=C(/C=C/c1ccc(O)cc1)CC(=O)/C=C/c1c[nH]cn1` [CU157, (1E,6E)-1-(4-hydroxyphenyl)-7-(1H-imidazol-4-yl)hepta-1,6-diene-3,5-dione], which melting point is on record?
**A.** Its melting point is 168 to 172 °C.

**Q.** Which melting point does the source give for `COc1ccc(/C=C/C(=O)CC(=O)/C=C/c2ccc(O)cc2)c(OC)c1` [CU072, (1E,6E)-1-(2,4-dimethoxyphenyl)-7-(4-hydroxyphenyl)hepta-1,6-diene-3,5-dione] here?
**A.** Its melting point is 161 to 167 °C.

**Q.** With `Nc1ccc(OCc2ccccc2)cc1/C=C/C(=O)CC(=O)/C=C/c1ccc(O)cc1` [CU489, (1E,6E)-1-(2-amino-5-benzyloxyphenyl)-7-(4-hydroxyphenyl)hepta-1,6-diene-3,5-dione] as the molecule, how does the melting point read?
**A.** Its melting point is 175 to 179 °C.

**Q.** For `COc1cc(/C=C/C(=O)CC(=O)/C=C/c2cccs2)ccc1O` [CU016, (1E,6E)-1-(4-hydroxy-3-methoxyphenyl)-7-(thiophen-2-yl)hepta-1,6-diene-3,5-dione], which melting point is on record?
**A.** The melting point was 52 to 54 °C.

**Q.** For `Nc1ccc(/C=C/C(=O)CC(=O)/C=C/c2ccc(O)cc2)cc1` [CU408, (1E,6E)-1-(4-aminophenyl)-7-(4-hydroxyphenyl)hepta-1,6-diene-3,5-dione], which melting point is on record?
**A.** Its melting point is 212 to 217 °C.

**Q.** For `COc1cc(O)cc(/C=C/C(=O)CC(=O)/C=C/c2cc(O)cc(OC)c2)c1` [CU358, (1E,6E)-1,7-bis(3-hydroxy-5-methoxyphenyl)hepta-1,6-diene-3,5-dione], which melting point is on record?
**A.** Its melting point is 147 to 151 °C.

**Q.** Which melting point does the source give for `COc1cc(/C=C/C(=O)CC(=O)/C=C/c2ccc(OC)c3ccccc23)ccc1O` [CU118, (1E,6E)-1-(4-hydroxy-3-methoxyphenyl)-7-(4-methoxynaphthalen-1-yl)hepta-1,6-diene-3,5-dione] here?
**A.** The melting point was 193 to 196 °C.

**Q.** For `COc1cccc(/C=C/C(=O)CC(=O)/C=C/c2ccc(O)cc2)c1OC` [CU069, (1E,6E)-1-(2,3-dimethoxyphenyl)-7-(4-hydroxyphenyl)hepta-1,6-diene-3,5-dione], which melting point is on record?
**A.** Its melting point is 70 to 72 °C.

**Q.** For `COc1cc(/C=C/C(=O)CC(=O)/C=C/c2ccc(NC(C)=O)cc2)ccc1O` [CU003, (1E,6E)-N-{4-[7-(4-hydroxy-3-methoxyphenyl)-3,5-dioxohepta-1,6-dienyl]phenyl}acetamide], which melting point is on record?
**A.** Its melting point is 193 to 195 °C.

**Q.** With `COc1ccc(OC)c(/C=C/C(=O)CC(=O)/C=C/c2ccc(O)c(OC)c2)c1` [CU076, (1E,6E)-1-(2,5-dimethoxyphenyl)-7-(4-hydroxy-3-methoxyphenyl)hepta-1,6-diene-3,5-dione] as the molecule, how does the melting point read?
**A.** Its melting point is 127 to 129 °C.

**Q.** Which melting point does the source give for `CCN(CC)c1ccc(/C=C/C(=O)CC(=O)/C=C/c2ccc(O)cc2)c(OCc2cccnc2)c1` [CU449, (1E,6E)-1-[4-diethylamino-2-(pyridin-3-ylmethoxy)phenyl]-7-(4-hydroxyphenyl)hepta-1,6-diene-3,5-dione] here?
**A.** Its melting point is 180 to 186 °C.

**Q.** With `COc1cc(/C=C/C(=O)CC(=O)/C=C/c2ccc(F)c(OC)c2)ccc1O` [CU138, (1E,6E)-1-(4-fluoro-3-methoxyphenyl)-7-(4-hydroxy-3-methoxyphenyl)hepta-1,6-diene-3,5-dione] as the molecule, how does the melting point read?
**A.** The melting point was 150 to 155 °C.

**Q.** Which melting point does the source give for `COc1cc(/C=C/C(=O)CC(=O)/C=C/c2cc(O)ccc2OC)ccc1O` [CU178, (1E,6E)-1-(4-hydroxy-3-methoxyphenyl)-7-(5-hydroxy-2-methoxyphenyl)hepta-1,6-diene-3,5-dione] here?
**A.** Its melting point is 75 to 80 °C.

**Q.** Which melting point does the source give for `COc1cc(/C=C/C(=O)CC(=O)/C=C/c2cccc(O)c2)ccc1O` [CU079, (1E,6E)-1-(4-hydroxy-3-methoxyphenyl)-7-(3-hydroxyphenyl)hepta-1,6-diene-3,5-dione] here?
**A.** Its melting point is 74 to 80 °C.

**Q.** With `COc1cc(/C=C/C(=O)CC(=O)/C=C/c2ccc(O)cc2)ccc1N(C)C` [CU048, (1E,6E)-1-(4-dimethylamino-3-methoxyphenyl)-7-(4-hydroxyphenyl)hepta-1,6-diene-3,5-dione] as the molecule, how does the melting point read?
**A.** Its melting point is 84 to 86 °C.

**Q.** Which melting point does the source give for `O=C(/C=C/c1ccc(O)cc1)CC(=O)/C=C/c1cccc(Br)c1` [CU464, (1E,6E)-1-(3-bromophenyl)-7-(4-hydroxyphenyl)hepta-1,6-diene-3,5-dione] here?
**A.** Its melting point is 156 to 160 °C.

**Q.** With `CN(C)c1ccc(/C=C/C(=O)CC(=O)CCc2ccc(O)cc2)c(Cl)c1` [CU524, (E)-1-(2-chloro-4-dimethylaminophenyl)-7-(4-hydroxyphenyl)hept-1-ene-3,5-dione] as the molecule, how does the melting point read?
**A.** Its melting point is 120 to 129 °C.

**Q.** With `COc1ccc(/C=C/C(=O)CC(=O)/C=C/c2cc(OC)c(O)c(OC)c2)cc1O` [CU136, (1E,6E)-1-(4-hydroxy-3,5-dimethoxyphenyl)-7-(3-hydroxy-4-methoxyphenyl)hepta-1,6-diene-3,5-dione] as the molecule, how does the melting point read?
**A.** The melting point was 91 to 95 °C.

**Q.** Which melting point does the source give for `CN(C)c1ccc(/C=C/C(=O)CC(=O)CCc2ccc(O)cc2)c([N+](=O)[O-])c1` [CU523, (E)-1-(4-dimethylamino-2-nitrophenyl)-7-(4-hydroxyphenyl)hept-1-ene-3,5-dione] here?
**A.** The melting point was 136 to 142 °C.

**Q.** Which melting point does the source give for `COc1ccc(/C=C/C(=O)CC(=O)/C=C/c2c(OC)ccc3ccccc23)cc1O` [CU117, (1E,6E)-1-(3-hydroxy-4-methoxyphenyl)-7-(2-methoxynaphthalen-1-yl)hepta-1,6-diene-3,5-dione] here?
**A.** The melting point was 150 to 155 °C.

**Q.** For `O=C(/C=C/c1ccc(O)cc1)CC(=O)/C=C/c1ccc(Oc2ccccc2)cc1` [CU213, (1E,6E)-1-(4-hydroxyphenyl)-7-(4-phenoxyphenyl)hepta-1,6-diene-3,5-dione], which melting point is on record?
**A.** Its melting point is 175 to 178 °C.

**Q.** With `O=C(/C=C/c1ccc(O)cc1)CC(=O)/C=C/c1cccc2cccnc12` [CU323, (1E,6E)-1-(4-hydroxyphenyl)-7-(quinolin-8-yl)hepta-1,6-diene-3,5-dione] as the molecule, how does the melting point read?
**A.** Its melting point is 112 to 117 °C.

**Q.** Which melting point does the source give for `COc1cc(/C=C/C(=O)CC(=O)/C=C/c2cn(Cc3ccccc3)c3ccccc23)ccc1O` [CU416, (1E,6E)-1-(1-benzyl-1H-indol-3-yl)-7-(4-hydroxy-3-methoxyphenyl)hepta-1,6-diene-3,5-dione] here?
**A.** Its melting point is 158 to 161 °C.

**Q.** With `COc1cc(/C=C/C(=O)CC(=O)/C=C/c2cccc(OC)c2O)ccc1O` [CU250, (1E,6E)-1-(2-hydroxy-3-methoxyphenyl)-7-(4-hydroxy-3-methoxyphenyl)hepta-1,6-diene-3,5-dione] as the molecule, how does the melting point read?
**A.** The melting point was 156 to 158 °C.

**Q.** Which melting point does the source give for `COCOc1c(O)cccc1/C=C/C(=O)CC(=O)/C=C/c1ccc(OC)c(O)c1` [CU248, (1E,6E)-1-[3-hydroxy-2-(methoxymethoxy)phenyl]-7-(3-hydroxy-4-methoxyphenyl)hepta-1,6-diene-3,5-dione] here?
**A.** The melting point was 79 to 83 °C.

**Q.** With `COc1ccc(/C=C/C(=O)CC(=O)/C=C/c2ccc(O)c(C)c2)cc1O` [CU052, (1E,6E)-1-(3-hydroxy-4-methoxyphenyl)-7-(4-hydroxy-3-methylphenyl)hepta-1,6-diene-3,5-dione] as the molecule, how does the melting point read?
**A.** Its melting point is 215 to 218 °C.
